For 24 molecules, IC50 and inhibition results are on record in US20120004244A1, “Bis Aromatic Compounds for Use as LTC4 Synthase Inhibitors” (BIOLIPOX AB, priority 2009, published 2012).

By IC50 is commonly meant the midpoint of a concentration-inhibition curve. Broadly, the inhibition is the percentage by which the read-out fell short of the control.

This assay deals with T1, Recombinant human LTC4 synthase (Homo sapiens, UniProt Q16873).
T1 construct: made in house; host or cells: Pichia pastoris ('Piccia pastoralis' [sic])
T1 sequence (Q16873 1-150): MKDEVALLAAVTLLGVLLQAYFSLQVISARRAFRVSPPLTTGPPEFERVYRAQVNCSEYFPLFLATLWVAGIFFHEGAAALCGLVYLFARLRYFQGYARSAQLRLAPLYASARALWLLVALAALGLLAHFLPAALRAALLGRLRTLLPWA
Briefly: LTC4 synthase in vitro assay (LTA4 to LTC4, HTRF detection). It is filed as biochemical. In outline:
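Purified recombinant human LTC4 synthase expressed in Pichia (0.5 μg/mL total protein) was preincubated with inhibitor at 10 μM final for 10 min at room temperature in PBS pH 7.4 with 5 mM GSH. LTA4 was then added at 2.5 μM final, and after 5 min at room temperature LTC4 was detected by HTRF.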

For `O=C(c1ccc(-n2nncc2-c2ccccc2)c(C(=O)O)c1)c1ccc(N(CC2CC2)c2ccc(Cl)cc2)cn1` [17:3, 5-{5-[(4-Chlorophenyl)(cyclopropylmethyl)amino]picolinoyl}-2-(5-phenyl-1,2,3-triazol-1-yl)benzoic acid], the half-inhibitory concentration (IC50) was determined as 45 nM. The inhibition at 10 µM (5 min, total concentration of title compound in the assay 10 μM) was determined as 100%. Turning to `O=C(c1ccc(-n2nncc2-c2cccc(Cl)c2)c(C(=O)O)c1)c1ccc(N(CC2CC2)c2ccc(Cl)cc2)cn1` [17:4, 5-{5-[(4-Chlorophenyl)(cyclopropylmethyl)amino]picolinoyl}-2-(5-(3-chlorophenyl)-1,2,3-triazol-1-yl)benzoic acid], the 50% inhibitory concentration (IC50) is 16 nM. `O=C(c1ccc(-n2nncc2-c2ccc(F)cc2)c(C(=O)O)c1)c1ccc(N(CC2CC2)c2ccc(Cl)cc2)cn1` [17:5, 5-{5-[(4-Chlorophenyl)(cyclopropylmethyl)amino]picolinoyl}-2-(5-(4-fluorophenyl)-1,2,3-triazol-1-yl)benzoic acid]: the IC50 was 56 nM. Turning to `O=C(c1ccc(-n2nncc2-c2ccccn2)c(C(=O)O)c1)c1ccc(N(CC2CC2)c2ccc(Cl)cc2)cn1` [17:6, 5-{5-[(4-Chlorophenyl)(cyclopropylmethyl)amino]picolinoyl}-2-(5-(pyridin-2-yl)-1,2,3-triazol-1-yl)benzoic acid], the concentration for half-maximal inhibition (IC50) was 107 nM. Still for that read-out and setting: in the case of `O=C(c1ccc(-n2nc(C(F)(F)F)cc2-c2ccccc2)c(C(=O)O)c1)c1ccc(N(CC2CC2)c2ccc(Cl)cc2)cn1` [18:1, 5-{5-[(4-Chlorophenyl)(cyclopropylmethyl)amino]picolinoyl}-2-(5-phenyl-3-trifluoro-methylpyrazol-1-yl)benzoic acid] it was 297 nM; in that of `CN(c1ccc(Cl)cc1)c1ccc(C(=O)c2ccc(-n3nc(-c4ccccc4)cc3C(F)(F)F)c(C(=O)O)c2)nc1` [18:2, 5-{5-[(4-Chlorophenyl)(methyl)amino]picolinoyl}-2-(3-phenyl-5-trifluoro-methylpyrazol-1-yl)benzoic acid], 104 nM.

Turning to `CN(c1ccc(Cl)cc1)c1ccc(C(=O)c2ccc(-n3nc(C(F)(F)F)cc3-c3ccccc3)c(C(=O)O)c2)nc1` [18:3], the IC50 worked out at 177 nM. Consider `O=C(c1ccc(-n2nc(-c3ccccc3)cc2C(F)(F)F)c(C(=O)O)c1)c1ccc(N(CC2CC2)c2ccc(Cl)cc2)cn1` [18:4, 5-{5-[(4-Chlorophenyl)(cyclopropylmethyl)amino]picolinoyl}-2-(3-phenyl-5-trifluoromethylpyrazol-1-yl)benzoic acid], for which the IC50 is 65 nM. Take `CN(c1ccc(Cl)cc1)c1ccc(C(=O)c2ccc(-n3nc(-c4cccc(Cl)c4)cc3C(F)(F)F)c(C(=O)O)c2)nc1` [18:5, 5-{5-[(4-Chlorophenyl)(methyl)amino]picolinoyl}-2-[3-(3-chlorophenyl)-5-trifluoromethylpyrazol-1-yl]benzoic acid]: the IC50 is 116 nM. Same read-out and setting: under `CN(c1ccc(Cl)cc1)c1ccc(C(=O)c2ccc(-n3nc(-c4ccc(Cl)cc4)cc3C(F)(F)F)c(C(=O)O)c2)nc1` [18:6, 5-{5-[(4-Chlorophenyl)(methyl)amino]picolinoyl}-2-[3-(4-chlorophenyl)-5-trifluoromethylpyrazol-1-yl]benzoic acid] stands 115 nM; under `CN(c1ccc(Cl)cc1)c1ccc(C(=O)c2ccc(-n3nc(C(F)(F)F)cc3-c3ccc(Cl)cc3)c(C(=O)O)c2)nc1` [18:7, 5-{5-[(4-Chlorophenyl)(methyl)amino]picolinoyl}-2-[5-(4-chlorophenyl)-3-trifluoromethylpyrazol-1-yl]benzoic acid], 250 nM. Turning to `Cc1cn(-c2ccc(C(=O)c3ccc(N(C)c4ccc(Cl)cc4)cn3)cc2C(=O)O)c(-c2ccccc2)n1` [19:1, 5-{5-[(4-Chlorophenyl)(methyl)amino]picolinoyl}-2-(4-methyl-2-phenylimidazol-1-yl)benzoic acid], the IC50 was 235 nM. The same measure, in the same setting: under `CN(c1ccc(Cl)cc1)c1ccc(C(=O)c2ccc(-n3ccnc3-c3ccccc3)c(C(=O)O)c2)nc1` [19:2, 5-{5-[(4-Chlorophenyl)(methyl)amino]picolinoyl}-2-(2-phenylimidazol-1-yl)benzoic acid] stands 486 nM.

Turning to `CN(c1ccc(Cl)cc1)c1ccc(C(=O)c2ccc(-n3cccc3-c3cccc(Cl)c3)c(C(=O)O)c2)nc1` [20:1, 5-{5-[(4-Chlorophenyl)(methyl)amino]picolinoyl}-2-{2-(3-chlorophenyl)pyrrol-1-yl}benzoic acid], the IC50 was 163 nM. Regarding `CN(c1ccc(Cl)cc1)c1ccc(C(=O)c2ccc(-n3cccc3-c3ccccc3)c(C(=O)O)c2)nc1` [20:2, 5-{5-[(4-Chlorophenyl)(methyl)amino]picolinoyl}-2-(2-phenylpyrrol-1-yl)benzoic acid], the IC50 worked out at 64 nM. Same read-out and setting: in the case of `CN(c1ccc(Cl)cc1)c1ccc(C(=O)c2ccc(-c3ccccc3C(F)(F)F)c(C(=O)O)c2)nc1` [21:1, 4-{5-[(4-Chlorophenyl)methylamino]pyridine-2-carbonyl}-2′-trifluoromethyl-biphenyl-2-carboxylic acid] it was 138 nM; in that of `CN(c1ccc(Cl)cc1)c1ccc(C(=O)c2ccc(-c3ccc(Cl)cc3Cl)c(C(=O)O)c2)nc1` [21:2, 2′,4′-Dichloro-4-{5-[(4-chlorophenyl)(methyl)amino]picolinoyl}biphenyl-2-carboxylic acid], 261 nM; in that of `CN(c1ccc(Cl)cc1)c1ccc(C(=O)c2ccc(-c3ccccc3Cl)c(C(=O)O)c2)nc1` [21:3, 2′-Chloro-4-{5-[(4-chlorophenyl)(methyl)amino]picolinoyl}biphenyl-2-carboxylic acid], 349 nM. `CN(c1ccc(Cl)cc1)c1ccc(C(=O)c2ccc(-c3cccc(Cl)c3)c(C(=O)O)c2)nc1` [21:4, 3′-Chloro-4-{5-[(4-chlorophenyl)(methyl)amino]picolinoyl}biphenyl-2-carboxylic acid]: the IC50 was 704 nM. As to `CN(c1ccc(Cl)cc1)c1ccc(C(=O)c2ccc(-c3ccccc3OCC3CC3)c(C(=O)O)c2)nc1` [21:5, 4-{5-[(4-Chlorophenyl)(methyl)amino]picolinoyl}-2′-(cyclopropylmethoxy)-biphenyl-2-carboxylic acid], the IC50 turned out to be 384 nM.

For the molecule `CN(c1ccc(Cl)cc1)c1ccc(C(=O)c2ccc(-c3ccccc3OC(F)(F)F)c(C(=O)O)c2)nc1` [21:6, 4-{5-[(4-chlorophenyl)(methyl)amino]picolinoyl}-2′-trifluoromethoxy-biphenyl-2-carboxylic acid], the IC50 came to 217 nM. As to `CN(c1ccc(Cl)cc1)c1ccc(C(=O)c2ccc(-c3cc(Cl)ccc3Cl)c(C(=O)O)c2)nc1` [21:7, 2′,5′-Dichloro-4-{5-[(4-chlorophenyl)(methyl)amino]picolinoyl}biphenyl-2-carboxylic acid], the half-maximal inhibitory concentration (IC50) turned out to be 269 nM. Regarding `CN(c1ccc(Cl)cc1)c1ccc(C(=O)c2ccc(-c3ccccc3-c3ccccc3)c(C(=O)O)c2)nc1` [21:8, 4-{5-[(4-Chlorophenyl)(methyl)amino]picolinoyl}[1,1′;2′,1″]terphenyl-2-carboxylic acid], the 50% inhibitory concentration (IC50) is 244 nM.

For `CN(c1ccc(Cl)cc1)c1ccc(C(=O)c2ccc(-c3cccc(-c4ccccc4)c3)c(C(=O)O)c2)nc1` [21:9, 4-{5-[(4-Chlorophenyl)(methyl)amino]picolinoyl}[1,1′;2′,1″]terphenyl-2-carboxylic acid[1,1′;3′,1″]terphenyl-2-carboxylic acid], the IC50 was 511 nM.
